Earlier results on one molecule are cited in US20090318293A1, “AGRICULTURAL COMPOSITION” (PLANT IMPACT PLC, priority 2005, published 2009).

In this data set the test system is cotyledon growth, chlorophyll biosynthesis and cell elongation. Particulars: on cotyledon growth, chlorophyll biosynthesis and cell elongation in the systems studied.

For the molecule `Cn1c(=O)c2c(ncn2C)n(C)c1=O` [caffeine, 3,7-Dihydro-1,3,7-trimethyl-1H-purine-2,6-dione], the cytokinin-like effect entry is listed as “weak cytokinin-like effect”.
